SMILES strings stand for the structures.

The target in the assay is T1, human acetyl-CoA carboxylase 2 (ACC2) (Homo sapiens, UniProt O00763).
T1 construct: The cDNA encoding amino acids 144 to 2458 of human acetyl-CoA carboxylase 2; made in house; host or cells: Sf9 insect cells (baculovirus, pFastBac1)
T1 sequence (O00763 144-2458): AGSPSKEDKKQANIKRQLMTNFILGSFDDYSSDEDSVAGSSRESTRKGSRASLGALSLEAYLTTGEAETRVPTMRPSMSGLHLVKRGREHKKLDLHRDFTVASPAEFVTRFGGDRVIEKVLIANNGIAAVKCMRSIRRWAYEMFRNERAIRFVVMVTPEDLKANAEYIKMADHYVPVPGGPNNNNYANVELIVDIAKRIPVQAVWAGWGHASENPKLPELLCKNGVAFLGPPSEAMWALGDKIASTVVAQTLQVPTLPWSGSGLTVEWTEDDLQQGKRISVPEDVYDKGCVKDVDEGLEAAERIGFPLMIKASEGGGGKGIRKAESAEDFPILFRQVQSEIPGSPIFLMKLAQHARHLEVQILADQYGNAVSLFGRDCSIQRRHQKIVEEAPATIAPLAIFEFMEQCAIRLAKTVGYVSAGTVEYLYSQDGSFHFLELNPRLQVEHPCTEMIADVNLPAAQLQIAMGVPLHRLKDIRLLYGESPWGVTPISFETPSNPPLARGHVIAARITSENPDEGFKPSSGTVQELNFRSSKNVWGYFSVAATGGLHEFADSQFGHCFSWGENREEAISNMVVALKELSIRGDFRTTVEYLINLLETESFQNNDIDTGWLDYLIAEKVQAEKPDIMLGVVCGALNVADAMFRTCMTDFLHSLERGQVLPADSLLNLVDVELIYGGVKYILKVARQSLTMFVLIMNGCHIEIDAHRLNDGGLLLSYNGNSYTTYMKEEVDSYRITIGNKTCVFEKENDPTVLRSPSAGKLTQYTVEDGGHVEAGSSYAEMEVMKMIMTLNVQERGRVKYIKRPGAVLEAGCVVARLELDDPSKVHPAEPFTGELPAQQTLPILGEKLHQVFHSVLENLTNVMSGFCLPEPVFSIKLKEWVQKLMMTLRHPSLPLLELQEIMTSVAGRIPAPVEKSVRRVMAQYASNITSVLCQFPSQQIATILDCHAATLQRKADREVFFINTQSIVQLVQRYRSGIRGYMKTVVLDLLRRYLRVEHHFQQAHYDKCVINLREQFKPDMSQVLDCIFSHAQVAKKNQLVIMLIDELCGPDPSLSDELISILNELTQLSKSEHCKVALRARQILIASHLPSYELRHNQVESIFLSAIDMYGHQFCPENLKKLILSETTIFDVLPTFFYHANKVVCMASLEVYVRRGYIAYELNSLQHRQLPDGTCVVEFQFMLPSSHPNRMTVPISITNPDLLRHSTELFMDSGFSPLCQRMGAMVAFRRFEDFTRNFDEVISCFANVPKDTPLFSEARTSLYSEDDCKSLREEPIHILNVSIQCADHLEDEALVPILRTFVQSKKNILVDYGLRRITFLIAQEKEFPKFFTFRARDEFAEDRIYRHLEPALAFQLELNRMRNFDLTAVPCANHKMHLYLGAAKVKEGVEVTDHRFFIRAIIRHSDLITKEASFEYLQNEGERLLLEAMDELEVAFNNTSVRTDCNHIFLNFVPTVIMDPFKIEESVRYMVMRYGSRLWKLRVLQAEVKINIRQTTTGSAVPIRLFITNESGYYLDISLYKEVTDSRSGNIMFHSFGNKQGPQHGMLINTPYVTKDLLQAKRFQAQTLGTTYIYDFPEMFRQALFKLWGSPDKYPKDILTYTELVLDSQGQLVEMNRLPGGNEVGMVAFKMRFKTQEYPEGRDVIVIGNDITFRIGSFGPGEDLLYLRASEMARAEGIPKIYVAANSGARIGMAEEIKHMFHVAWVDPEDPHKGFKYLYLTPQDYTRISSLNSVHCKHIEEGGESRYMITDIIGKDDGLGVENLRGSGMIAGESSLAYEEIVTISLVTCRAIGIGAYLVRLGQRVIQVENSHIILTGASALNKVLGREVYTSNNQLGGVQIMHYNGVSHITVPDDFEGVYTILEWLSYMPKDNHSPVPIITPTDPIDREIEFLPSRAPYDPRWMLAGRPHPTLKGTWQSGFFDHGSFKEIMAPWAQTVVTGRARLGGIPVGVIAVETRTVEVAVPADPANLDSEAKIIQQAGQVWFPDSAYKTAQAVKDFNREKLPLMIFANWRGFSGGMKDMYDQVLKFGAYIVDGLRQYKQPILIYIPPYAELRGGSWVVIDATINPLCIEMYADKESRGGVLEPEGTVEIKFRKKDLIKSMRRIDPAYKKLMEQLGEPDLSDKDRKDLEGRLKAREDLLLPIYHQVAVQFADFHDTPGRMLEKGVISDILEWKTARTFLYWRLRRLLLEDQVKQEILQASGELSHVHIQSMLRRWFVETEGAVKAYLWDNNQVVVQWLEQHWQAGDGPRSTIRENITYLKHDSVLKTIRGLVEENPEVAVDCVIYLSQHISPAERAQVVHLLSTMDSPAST
Briefly: Acetyl-CoA carboxylase enzyme assay (malonyl-CoA formation by LC/MS/MS). The format is biochemical. The note with it: recombinant human ACC2 (aa 144-2458); read-out: IC50 ACC2. In outline: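 Malonyl-CoA formation was read by LC/MS/MS MRM against a [13C3]-malonyl-CoA internal standard, after acetic acid quench. The enzyme was baculovirus/Sf9-expressed human ACC2 residues 144–2458, given 15 minutes room-temperature compound preincubation in HEPES pH 7.5 buffer with MgCl2, citrate and DTT. Substrate solution held 50 μM acetyl-CoA, 120 μM ATP and 2 mM KHCO3.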
For orientation: IC50 means the concentration that inhibits the measured activity by half. Turning to `COC(=O)c1ccc(-c2cc3ccc(S(=O)(=O)N[C@H]4CC[C@H](C(=O)N[C@H](C)c5ccc(F)cc5)CC4)cc3[nH]2)c(C)c1` [Example 300], the IC50 was found to be 10 nM.

As for `C[C@H](NC(=O)[C@H]1CC[C@@H](NS(=O)(=O)c2cnc3c(c2)NCCN3)CC1)c1ccc(F)cc1` [Example 198, (1s,4S)-N-((R)-1-(4-fluorophenyl)ethyl)-4-(1,2,3,4-tetrahydropyrido[3,2-b]pyrazine-7-sulfonamido)cyclohexanecarboxamide], the IC50 is above 35000 nM. For `COc1ccc(-c2nc3ccc(S(=O)(=O)Nc4ccc(C(=O)OC(C)C)cc4)cc3[nH]2)cc1` [Example 497, isopropyl 4-(2-(4-methoxyphenyl)-1H-benzo[d]imidazole-6-sulfonamido)benzoate], the IC50 came to 762 nM. In the case of `CC1COCCN1C(=O)[C@H]1CC[C@H](NS(=O)(=O)c2ccc3c(C#N)c(C4CC4)n(C)c3c2)CC1` (stereo partly drawn) [Example 401, 3-cyano-2-cyclopropyl-1-methyl-N-((1r,4r)-4-(3-methylmorpholine-4-carbonyl)cyclohexyl)-1H-indole-6-sulfonamide], the IC50 worked out at 25 nM.

Turning to `CC(C)OC(=O)c1ccc(NS(=O)(=O)c2ccc3nc(-c4ccc(F)cc4)[nH]c3c2)cc1` [Example 499, isopropyl 4-(2-(4-fluorophenyl)-1H-benzo[d]imidazole-6-sulfonamido)benzoate], the concentration for half-maximal inhibition (IC50) is 2110 nM. As for `C[C@@H]1CN(C(=O)[C@H]2CC[C@H](NS(=O)(=O)c3ccc4cc(-c5ccccc5)[nH]c4c3)CC2)C[C@H](C)O1` [Example 475, N-((1R,4r)-4-((2S,6R)-2,6-dimethylmorpholine-4-carbonyl)cyclohexyl)-2-phenyl-1H-indole-6-sulfonamide], the figure is 15 nM; as for `Cc1cc(CO)ccc1-c1cc2ccc(S(=O)(=O)N[C@H]3CC[C@H](C(=O)N4CCN(C(=O)OC(C)(C)C)C[C@@H]4c4ccccc4)CC3)cc2[nH]1` [Example 309, (S)-tert-butyl 4-((1r,4S)-4-(2-(4-(hydroxymethyl)-2-methylphenyl)-1H-indole-6-sulfonamido)cyclohexanecarbonyl)-3-phenylpiperazine-1-carboxylate], 20 nM.

As for `Cc1cccc(-c2nc3ccc(S(=O)(=O)Nc4ccc(C(=O)OC(C)C)cc4)cc3[nH]2)c1` [Example 501, isopropyl 4-(2-m-tolyl-1H-benzo[d]imidazole-6-sulfonamido)benzoate], the IC50 was determined as 1660 nM.

Consider `C[C@@H](NC(=O)[C@H]1CC[C@H](NS(=O)(=O)c2ccc3cc(C4CCCC4)[nH]c3c2)CC1)c1ccc(F)cc1` [Example 304, (1r,4R)-4-(2-cyclopentyl-1H-indole-6-sulfonamido)-N-((R)-1-(4-fluorophenyl)ethyl)cyclohexanecarboxamide], for which the IC50 was determined as 180 nM.

Consider `CC(C)OC(=O)[C@H]1CC[C@H](NS(=O)(=O)c2ccc3[nH]c(Nc4ccccc4)nc3c2)CC1` [Example 554, (1r,4r)-isopropyl 4-(2-(phenylamino)-1H-benzo[d]imidazole-5-sulfonamido)cyclohexanecarboxylate], for which the IC50 stood at 28 nM. Under `CCOc1ccc2cc(S(=O)(=O)N[C@H]3CC[C@H](C(=O)N[C@H](COP(=O)(OC(C)(C)C)OC(C)(C)C)c4ccccc4)CC3)ccc2n1` [Example 268, di-tert-butyl (S)-2-((1r,4S)-4-(2-ethoxyquinoline-6-sulfonamido)cyclohexanecarboxamido)-2-phenylethyl phosphate] stands 435 nM; under `Cn1c(-c2ccc(F)cc2)cc2ccc(S(=O)(=O)N[C@H]3CC[C@H](C(=O)N4CCCC(C(=O)O)C4)CC3)cc21` (stereo partly drawn) [Example 346, 1-((1r,4r)-4-(2-(4-fluorophenyl)-1-methyl-1H-indole-6-sulfonamido)cyclohexanecarbonyl)piperidine-3-carboxylic acid], 265 nM; under `O=C([C@H]1CC[C@H](NS(=O)(=O)c2ccc3c(c2)NCCC3)CC1)N1CCNCC1c1ccccc1` (stereo partly drawn) [Example 176, N-((1r,4r)-4-(2-phenylpiperazine-1-carbonyl)cyclohexyl)-1,2,3,4-tetrahydroquinoline-7-sulfonamide], 105 nM.

Regarding `CC(C)(O)C1CCCN(C(=O)[C@H]2CC[C@H](NS(=O)(=O)c3ccc4c(Cl)c(-c5ccccc5)[nH]c4c3)CC2)C1` (stereo partly drawn) [Example 383, 3-chloro-N-((1r,4r)-4-(3-(2-hydroxypropan-2-yl)piperidine-1-carbonyl)cyclohexyl)-2-phenyl-1H-indole-6-sulfonamide], the IC50 was below 10 nM. Take `CCCOC(=O)c1ccc(OS(=O)(=O)c2ccc3nc(-c4ccccc4)[nH]c3c2)cc1` [Example 493, propyl 4-(2-phenyl-1H-benzo[d]imidazol-6-ylsulfonyloxy)benzoate]: the half-inhibitory concentration (IC50) was above 139000 nM. Under `C[C@@H](NC(=O)[C@H]1CC[C@H](NS(=O)(=O)c2cnc3c(c2)NCCN3)CC1)c1ccc(F)cc1` [Example 33, (1r,4R)—N—((R)-1-(4-fluorophenyl)ethyl)-4-(1,2,3,4-tetrahydropyrido[3,2-b]pyrazine-7-sulfonamido)cyclohexanecarboxamide] stands 140 nM; under `O=C([C@H]1CC[C@H](NS(=O)(=O)c2ccc3[nH]c(-c4ccccc4)nc3c2)CC1)N1Cc2ccccc2C1` [Example 623, N-((1r,4r)-4-(isoindoline-2-carbonyl)cyclohexyl)-2-phenyl-1H-benzo[d]imidazole-5-sulfonamide], 560 nM. `CC(C)OC(=O)c1ccc(NS(=O)(=O)c2ccc3[nH]c(Nc4ccc(C#N)cc4)nc3c2)cc1` [Example 552, isopropyl 4-(2-(4-cyanophenylamino)-1H-benzo[d]imidazole-5-sulfonamido)benzoate]: the IC50 is 334 nM. For `COCCN(C(=O)[C@H]1CC[C@H](NS(=O)(=O)c2ccc3[nH]c(-c4ccccc4)nc3c2)CC1)C1CCCCC1` [Example 676, (1r,4R)-N-cyclohexyl-N-(2-methoxyethyl)-4-(2-phenyl-1H-benzo[d]imidazole-5-sulfonamido)cyclohexanecarboxamide], the IC50 stood at 23 nM.

With `Cc1ccnc2ncc(S(=O)(=O)N[C@H]3CC[C@H](C(=O)N[C@H](C)c4ccc(F)cc4)CC3)cc12` [Example 140, (1r,4R)-N-((R)-1-(4-fluorophenyl)ethyl)-4-(5-methyl-1,8-naphthyridine-3-sulfonamido)cyclohexanecarboxamide], the IC50 is 986 nM. Under `C[C@H]1COCCN1C(=O)[C@H]1CC[C@H](NS(=O)(=O)c2ccc3cc(-c4ccc(CCC(=O)O)cc4)n(C)c3c2)CC1` [Example 427, 3-(4-(1-methyl-6-(N-((1S,4r)-4-((S)-3-methylmorpholine-4-carbonyl)cyclohexyl)sulfamoyl)-1H-indol-2-yl)phenyl)propanoic acid] stands 15 nM.

As for `CC(C)[C@H]1COCCN1C(=O)[C@H]1CC[C@H](NS(=O)(=O)c2ccc3cc(-c4ccccc4)[nH]c3c2)CC1` [Example 463, N-((1S,4r)-4-((S)-3-isopropylmorpholine-4-carbonyl)cyclohexyl)-2-phenyl-1H-indole-6-sulfonamide], the IC50 is below 10 nM. For the compound `Cc1ccccc1-c1cc2ccc(S(=O)(=O)N[C@H]3CC[C@H](C(=O)N[C@H](C)c4ccc(F)cc4)CC3)cc2[nH]1` [Example 292, (1r,4R)-N-((R)-1-(4-fluorophenyl)ethyl)-4-(2-o-tolyl-1H-indole-6-sulfonamido)cyclohexanecarboxamide], the IC50 came out at 12 nM.

`C[C@@H](NC(=O)[C@H]1CC[C@H](NS(=O)(=O)c2ccc3nc(OC4CCC4)ccc3c2)CC1)c1ccc(F)cc1` [Example 51, (1r,4R)-4-(2-cyclobutoxyquinoline-6-sulfonamido)-N-((R)-1-(4-fluorophenyl)ethyl)cyclohexanecarboxamide]: the IC50 worked out at 101 nM. As for `COCCc1ccc(-c2cc3ccc(S(=O)(=O)N[C@H]4CC[C@H](C(=O)N5CCOC[C@@H]5C)CC4)cc3n2C)cc1` [Example 444, 2-(4-(2-methoxyethyl)phenyl)-1-methyl-N-((1S,4r)-4-((S)-3-methylmorpholine-4-carbonyl)cyclohexyl)-1H-indole-6-sulfonamide], the figure is 20 nM; as for `O=C(Nc1ccccc1)c1ccc(NS(=O)(=O)c2ccc3[nH]c(-c4ccccc4)nc3c2)cc1` [Example 490, N-phenyl-4-(2-phenyl-1H-benzo[d]imidazole-5-sulfonamido)benzamide], above 139000 nM; as for `COc1cc(Nc2nc3cc(S(=O)(=O)Nc4ccc(C(=O)OC(C)C)cc4)ccc3[nH]2)cc(OC)c1` [Example 530, isopropyl 4-(2-(3,5-dimethoxyphenylamino)-1H-benzo[d]imidazole-5-sulfonamido)benzoate], 612 nM. As to `O=C(NC1CC1)[C@H]1CC[C@H](NS(=O)(=O)c2ccc3[nH]c(-c4ccccc4)nc3c2)CC1` [Example 635, (1r,4r)-N-cyclopropyl-4-(2-phenyl-1H-benzo[d]imidazole-5-sulfonamido)cyclohexanecarboxamide], the IC50 came out at 256 nM.

For `C[C@@H](NC(=O)[C@H]1CC[C@H](NS(=O)(=O)c2cnc3c(c2)N(C)C2CCCCC2N3C)CC1)c1ccc(F)cc1` (stereo partly drawn) [Example 134, (1r,4R)-4-(5,10-dimethyl-5,5a,6,7,8,9,9a,10-octahydropyrido[3,2-b]quinoxaline-3-sulfonamido)-N((R)-1-(4-fluorophenyl)ethyl)cyclohexanecarboxamide], the IC50 worked out at 28 nM. `CC(C)(C)OC(=O)N1CCN(C(=O)[C@H]2CC[C@H](NS(=O)(=O)c3ccc4cc(-c5ccccc5C(F)(F)F)[nH]c4c3)CC2)[C@@H](c2ccccc2)C1` [Example 328, (S)-tert-butyl 3-phenyl-4-((1r,4S)-4-(2-(2-(trifluoromethyl)phenyl)-1H-indole-6-sulfonamido)cyclohexanecarbonyl)piperazine-1-carboxylate]: the IC50 was found to be 55 nM.

Values taken from patent publication US8697739B2, “Bicyclic acetyl-CoA carboxylase inhibitors and uses thereof” (Novartis AG, priority 2010, dated 2014).
